Assay results: the supplement of paper PMC4862054

system: SK-BR-3; settings: 72 h
In short: (§1)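 The plates used were 384-well plates holding compound at 5 concentrations in 10-fold steps across a compound-specific 10,000-fold range, into which breast cancer cell lines were seeded in 20 µl suspension. Following 72 h incubation, CellTox Green fluorescence was read at 485/520 nm, and CellTiter-Glo luminescence was read after 10 min at room temperature. Normalisation on each plate used 0.1 % DMSO and a positive kill control. Dose-response curves gave the EC50, which was censored at the top concentration.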

EC50, CellTiter-Glo [nM]	Compound
23.1	Nc1nc2[nH]cc(CCc3ccc(C(=O)N[C@@H](CCC(=O)O)C(=O)O)cc3)c2c(=O)[nH]1 [Pemetrexed]
918	Cc1cnc(NC(=O)Nc2cc(Br)c(C)cc2OC[C@@H]2CNCCO2)cn1 [Rabusertib]
2210	CC1=C(/C=C/C(C)=C/C=C/C(C)=C/C(=O)O)C(C)(C)CCC1 [Tretinoin]
2160	Nc1ccccc1NC(=O)c1ccc(CNC(=O)OCc2cccnc2)cc1 [Entinostat]
48.8	C=CC(=O)Nc1cc2c(Nc3ccc(F)c(Cl)c3)ncnc2cc1OCCCN1CCOCC1 [Canertinib]
343	CCCCC(=O)OCC(=O)[C@]1(O)Cc2c(O)c3c(c(O)c2[C@@H](O[C@H]2C[C@H](NC(=O)C(F)(F)F)[C@H](O)[C@H](C)O2)C1)C(=O)c1c(OC)cccc1C3=O [Valrubicin]

system: HCC1937; settings: 72 h
In short: as §1

Compound	EC50, CellTiter-Glo [nM]
C=CCc1cccc(/C=N/NC(=O)CN2CCN(Cc3ccccc3)CC2)c1O [PAC-1]	5300
CC[C@H](C)C(=O)O[C@H]1C[C@H](O)C=C2C=C[C@H](C)[C@H](CC[C@@H](O)C[C@@H](O)CC(=O)O)[C@H]21 [Pravastatin]	5960

Other lines, results leading:

EC50, CellTiter-Glo [nM]	Compound
6.97	O=C(/C=C/c1cccnc1)NCCCCC1CCN(C(=O)c2ccccc2)CC1 [Daporinad]
64.1	Nc1nc2[nH]cc(CCc3ccc(C(=O)N[C@@H](CCC(=O)O)C(=O)O)cc3)c2c(=O)[nH]1 [Pemetrexed]
> 10000	COc1cc2nccc(Oc3ccc(NC(=O)Nc4cc(C)on4)c(Cl)c3)c2cc1OC [Tivozanib]
3340	C=CC(=O)Nc1cc2c(Nc3ccc(F)c(Cl)c3)ncnc2cc1OCCCN1CCOCC1 [Canertinib]
629	CCCCC(=O)OCC(=O)[C@]1(O)Cc2c(O)c3c(c(O)c2[C@@H](O[C@H]2C[C@H](NC(=O)C(F)(F)F)[C@H](O)[C@H](C)O2)C1)C(=O)c1c(OC)cccc1C3=O [Valrubicin]

system: HCC1143; settings: 72 h
In short: as §1

Compound	EC50, CellTiter-Glo [nM]
C=CCc1cccc(/C=N/NC(=O)CN2CCN(Cc3ccccc3)CC2)c1O [PAC-1]	6700
CC[C@H](C)C(=O)O[C@H]1C[C@H](O)C=C2C=C[C@H](C)[C@H](CC[C@@H](O)C[C@@H](O)CC(=O)O)[C@H]21 [Pravastatin]	2450

The next lines start with the values.

EC50, CellTiter-Glo [nM]	Compound
6.01	CC[C@@H]1C(=O)N(C)c2cnc(Nc3ccc(C(=O)NC4CCN(C)CC4)cc3OC)nc2N1C1CCCC1 [BI 2536]
8.05	O=C(/C=C/c1cccnc1)NCCCCC1CCN(C(=O)c2ccccc2)CC1 [Daporinad]
4760	Nc1ccccc1NC(=O)c1ccc(CNC(=O)OCc2cccnc2)cc1 [Entinostat]
4710	C=CC(=O)Nc1cc2c(Nc3ccc(F)c(Cl)c3)ncnc2cc1OCCCN1CCOCC1 [Canertinib]
697	CCCCC(=O)OCC(=O)[C@]1(O)Cc2c(O)c3c(c(O)c2[C@@H](O[C@H]2C[C@H](NC(=O)C(F)(F)F)[C@H](O)[C@H](C)O2)C1)C(=O)c1c(OC)cccc1C3=O [Valrubicin]

system: CAL-51; settings: 72 h
In short: as §1

Compound	EC50, CellTiter-Glo [nM]
C=CCc1cccc(/C=N/NC(=O)CN2CCN(Cc3ccccc3)CC2)c1O [PAC-1]	1620
CC[C@@H]1C(=O)N(C)c2cnc(Nc3ccc(C(=O)NC4CCN(C)CC4)cc3OC)nc2N1C1CCCC1 [BI 2536]	10.9
CC[C@H](C)C(=O)O[C@H]1C[C@H](O)C=C2C=C[C@H](C)[C@H](CC[C@@H](O)C[C@@H](O)CC(=O)O)[C@H]21 [Pravastatin]	78
CCCS(=O)(=O)Nc1ccc(F)c(C(=O)c2c[nH]c3ncc(-c4ccc(Cl)cc4)cc23)c1F [Vemurafenib]	1680
Nc1nc2[nH]cc(CCc3ccc(C(=O)N[C@@H](CCC(=O)O)C(=O)O)cc3)c2c(=O)[nH]1 [Pemetrexed]	2.23
CCc1cncnc1N1CCN(Cc2nc3ccc(C(F)(F)F)cc3[nH]2)CC1	543
Nc1ccccc1NC(=O)c1ccc(CNC(=O)OCc2cccnc2)cc1 [Entinostat]	356
C=CC(=O)Nc1cc2c(Nc3ccc(F)c(Cl)c3)ncnc2cc1OCCCN1CCOCC1 [Canertinib]	573
CCCCC(=O)OCC(=O)[C@]1(O)Cc2c(O)c3c(c(O)c2[C@@H](O[C@H]2C[C@H](NC(=O)C(F)(F)F)[C@H](O)[C@H](C)O2)C1)C(=O)c1c(OC)cccc1C3=O [Valrubicin]	162

system: MDA-MB-436; settings: 72 h
In short: as §1

Compound	EC50, CellTiter-Glo [nM]
C=CCc1cccc(/C=N/NC(=O)CN2CCN(Cc3ccccc3)CC2)c1O [PAC-1]	3480
Nc1nc(F)nc2c1ncn2[C@@H]1O[C@H](CO)[C@@H](O)[C@@H]1O [Fludarabine]	7390
CC[C@H](C)C(=O)O[C@H]1C[C@H](O)C=C2C=C[C@H](C)[C@H](CC[C@@H](O)C[C@@H](O)CC(=O)O)[C@H]21 [Pravastatin]	27.6

Second part, the compound after the results:

EC50, CellTiter-Glo [nM]	Compound
2.44	CC[C@@H]1C(=O)N(C)c2cnc(Nc3ccc(C(=O)NC4CCN(C)CC4)cc3OC)nc2N1C1CCCC1 [BI 2536]
67.4	O=C(/C=C/c1cccnc1)NCCCCC1CCN(C(=O)c2ccccc2)CC1 [Daporinad]
30.3	Nc1nc2[nH]cc(CCc3ccc(C(=O)N[C@@H](CCC(=O)O)C(=O)O)cc3)c2c(=O)[nH]1 [Pemetrexed]
6900	CC[C@H](Nc1ncnc2[nH]cnc12)c1nc2cccc(F)c2c(=O)n1-c1ccccc1 [GS-1101]
1330	Nc1ccccc1NC(=O)c1ccc(CNC(=O)OCc2cccnc2)cc1 [Entinostat]
4370	C=CC(=O)Nc1cc2c(Nc3ccc(F)c(Cl)c3)ncnc2cc1OCCCN1CCOCC1 [Canertinib]
311	CCCCC(=O)OCC(=O)[C@]1(O)Cc2c(O)c3c(c(O)c2[C@@H](O[C@H]2C[C@H](NC(=O)C(F)(F)F)[C@H](O)[C@H](C)O2)C1)C(=O)c1c(OC)cccc1C3=O [Valrubicin]

system: MFM-223; settings: 72 h
In short: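 Breast cancer cell lines in 20 µl suspension were seeded onto 384-well plates that already held compound dissolved in 5 µl medium and were incubated for 72 h. Viability was measured by adding 2.5 µl CellTiter-Blue for 2 h at 37 °C and reading fluorescence at 560/590 nm. Each plate was normalised to vehicle and a positive kill control and checked by Z'-factor. EC50 was taken from a fitted percent-inhibition dose-response curve, censored at the highest concentration, and rows with a drug sensitivity score of zero were removed.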

Compound	EC50, CellTiter-Blue viability [nM]
O=C(/C=C/c1cccnc1)NCCCCC1CCN(C(=O)c2ccccc2)CC1 [FK-866]	4.05
CC[C@@H]1C(=O)N(C)c2cnc(Nc3ccc(C(=O)NC4CCN(C)CC4)cc3OC)nc2N1C1CCCC1 [BI 2536]	1.57
O=C(O)C1(C(=O)O)CCC1.[NH2-].[NH2-].[Pt+2] [Carboplatin]	9690
CCN(CC)CCCC(C)Nc1c2ccc(Cl)cc2nc2ccc(OC)cc12 (stereo not drawn) [Mepacrine]	2220
